Key:
C. elegans nematodes = test: C. elegans lifespan in media with additives; format: in vivo; settings: for Animals alive, % of initial (N=50): derivatized cyclodextrin 0.1% w/v in media, USA 1 water; for effect on C. elegans survival: added to culture media; for effect on C. elegans survival / number of animals surviving to old ages: result in words; for Animals alive, (N= % of initial =50): parent cyclodextrin 0.1% w/v in media, USA I water; for number of animals surviving to old ages: after day 15, 0.1 % w/v
Description: C. elegans nematodes were grown in petri-type dishes containing normal nutrient liquid media prepared alternatively with USA 1 water (described in Example 2) lacking any further additive component (control) or the same water supplemented with a parent α-, β-, or γ-cyclodextrin, and/or a bioactive agent, as an active component of cellular hydration. Fifty ⊥ 3 worms were transferred to each dish. Each condition was repeated in triplicate. Experiments were repeated for USA II and BP I waters described in Example 2.
Water additives: A. Addition of parent α-, β- and γ-cvclodcxtrins. B. Addition of L-arginine and nicotinamide. C. Addition of inclusion complexes of cyclodextrins with L-arginine and nicotinamide.

[1] = NIR spectroscopy of water bonding with cyclodextrin additives; format: physicochemical
Description: Hydration bond energies in pure waters and solutions of the same waters containing cyclodextrin compounds were assayed using IR spectroscopy in the near and middle infrared ranges. To record linear signals throughout an entire wavelength range, attenuation from water absorbance was minimized with a short optical length cuvette.
NIR range spectra were registered on a FOSS NIR Systems, Inc. 6500 spectrometer and Sample Transport Module (STM) using a 1 mm-es cuvette. […]
Three samples of water were used in the present study. A first water sample (USA I) was obtained from the U.S. and was purified by reverse osmosis, carbon filtration, ultraviolet light exposure, membrane filtration to 0.2 micron absolute, and ozonation. A second water sample (USA II) was also obtained from the U.S. A third water sample (BP I) was obtained from Budapest, Hungary.
The following cyclodextrins were added to the above described water samples at a concentration range of 0.1% - 5% w/v: • α-cyclodextrin (αCD also denoted as ACD), Lot. No. CYL-2322. • β-cyclodextrin (βCD also denoted as BCD). Lot. No. CYL-2518/2. • γ-cyclodextrin (γCD also denoted as GCD), Lot. No. CYL-2323. • 2-hydroxypropyl-β-cyclodextrin (HPβCD, HPBCD), DS^∗ = 3.5, Lot. No. CYL-2232. • 2-hydroxypropyl-γ-cyclodextrin (HPCD, HPGCD), DS^∗ = 4.8, Lot. No. CYL-2258. • carboxymethyl-β-cyclodextrin (CMBCD), Lot. No. CYL-2576. • quaternary-ammonium-β-cyclodextrin (QABCD).

[2] = tested on: Wheat seeds (Triticum aestivum); test: Wheat seed germination in water with additives; format: in vivo
Description: For each condition, ten seeds were placed in continuous water contact in a Petri-type dish kept at 25C in 12 hr light/dark cycles. Photometric images were recorded on days 1 to 6 after seeding. The percentage of seeds germinated was calculated and compared as a function of time and of the applied additive concentrations.
Water samples for seed germination were used alone with no additive, or containing cyclodextrins, or containing clathrate inclusion complexes of cyclodextrin with L-arginine or with nicotinamide (both obtained from Sigma Chemical Co.; St. Louis, MO), or with L-carnitine (from Lonza AG; Switzerland). […] Additive solutions were prepared fresh on the day of germination start.
Germination kinetics in control and additive-modified water under identical conditions were quantified as the percentage of the seeds having a sprout. Each determination consisted of 100 seeds for each parameter. Results are reported in Table 1, below, and in FIGS. 11-13.

[3] = wavelength region 900-1200 nm (FIG. 7)
[4] = day 0, additive 0.5% w/v in USA I water, Table 1
[5] = day 1, additive 0.5% w/v in USA I water, Table 1
[6] = day 2, additive 0.5% w/v in USA I water, Table 1
[7] = day 3, additive 0.5% w/v in USA I water, Table 1
[8] = day 4, additive 0.5% w/v in USA I water, Table 1
[9] = day 0, additive 0.5% w/v in USA 1 water, Table 2, percentage of the seeds having a sprout
[10] = day 1, additive 0.5% w/v in USA 1 water, Table 2, percentage of the seeds having a sprout
[11] = day 2, additive 0.5% w/v in USA 1 water, Table 2, percentage of the seeds having a sprout
[12] = day 3, additive 0.5% w/v in USA 1 water, Table 2, percentage of the seeds having a sprout
[13] = day 4, additive 0.5% w/v in USA 1 water, Table 2, percentage of the seeds having a sprout

water-bond interactions, second-derivative NIR spectra ([1]; 1200-1500 nm (FIG. 8))	water-bond interactions, second-derivative NIR spectra ([1]; 1620-1710 nm (FIG. 9))	water-bond interactions, second-derivative NIR spectra ([1]; 2170-2370 nm (FIG. 10))	water-bond interactions, second-derivative NIR spectra [1, 3]	Compound	Animals alive, % of initial (N=50) (C. elegans nematodes; life span 10 days)	Animals alive, % of initial (N=50) (C. elegans nematodes; life span 15 days)	Animals alive, % of initial (N=50) (C. elegans nematodes; life span 18 days)	Animals alive, (N= % of initial =50) (C. elegans nematodes; life span 10 days)	Animals alive, (N= % of initial =50) (C. elegans nematodes; life span 15 days)	Animals alive, (N= % of initial =50) (C. elegans nematodes; life span 18 days)	other results
significantly modified	significantly modified	further significantly modified	significantly modified	2-hydroxy-3-N,N,N-trimethylamino)propyl-β-cyclodextrin chloride [Quaternaryammonium-β-Cyclodextrin]	98 % of initial	13 % of initial	2 % of initial	–	–	–	effect on micro-structure of hydrogen bonds in bulk water (NIR spectral changes) ([1]; comparison among cyclodextrin-treated water samples (FIGS. 9 and 10)): largest
significantly modified	significantly modified	significantly modified	further significantly modified	CC(O)COC[C@H]1O[C@@H]2O[C@H]3[C@H](O)[C@@H](O)[C@@H](O[C@H]4[C@H](O)[C@@H](O)[C@@H](O[C@H]5[C@H](O)[C@@H](O)[C@@H](O[C@H]6[C@H](O)[C@@H](O)[C@@H](O[C@H]7[C@H](O)[C@@H](O)[C@@H](O[C@H]8[C@H](O)[C@@H](O)[C@@H](O[C@H]1[C@H](O)[C@H]2O)O[C@@H]8COCC(C)O)O[C@@H]7COCC(C)O)O[C@@H]6COCC(C)O)O[C@@H]5COCC(C)O)O[C@@H]4COCC(C)O)O[C@@H]3COCC(C)O (stereo partly drawn) [HP-β-Cyclodextrin, 2-hydroxypropyl-β-cyclodextrin]	96 % of initial	17 % of initial	0 % of initial	–	–	–	–
–	–	–	–	N=C(N)NCCC[C@H](N)C(=O)O [L-Arg, L-arginine, reference compound]	–	–	–	–	–	–	effect on C. elegans survival (C. elegans nematodes): little effect; wheat seed germination rate [2, 4]: 0 percentage of total seeds; wheat seed germination rate [2, 5]: 0 percentage of total seeds; wheat seed germination rate [2, 6]: 30 percentage of total seeds; wheat seed germination rate [2, 7]: 45 percentage of total seeds; wheat seed germination rate [2, 8]: 60 percentage of total seeds
–	–	–	–	NC(=O)c1cccnc1 [nicotinamide, reference compound]	–	–	–	–	–	–	effect on C. elegans survival (C. elegans nematodes): little effect; wheat seed germination rate [2, 9]: 0%; wheat seed germination rate [2, 10]: 0%; wheat seed germination rate [2, 11]: 4%; wheat seed germination rate [2, 12]: 10%; wheat seed germination rate [2, 13]: 60%
–	–	–	–	OC[C@H]1O[C@@H]2O[C@H]3[C@H](O)[C@@H](O)[C@@H](O[C@H]4[C@H](O)[C@@H](O)[C@@H](O[C@H]5[C@H](O)[C@@H](O)[C@@H](O[C@H]6[C@H](O)[C@@H](O)[C@@H](O[C@H]7[C@H](O)[C@@H](O)[C@@H](O[C@H]8[C@H](O)[C@@H](O)[C@@H](O[C@H]1[C@H](O)[C@H]2O)O[C@@H]8CO)O[C@@H]7CO)O[C@@H]6CO)O[C@@H]5CO)O[C@@H]4CO)O[C@@H]3CO [β-Cydodextrin, β-cyclodextrin]	–	–	–	100 % of initial	18 % of initial	0 % of initial	–
further significantly modified	significantly modified	significantly modified	further significantly modified	carboxymethyl-β-cyclodextrin [Carboxymethyl-β-Cydodextrin]	94 % of initial	11 % of initial	0 % of initial	–	–	–	–
–	–	–	–	α-cyclodextrin	–	–	–	100 % of initial	20 % of initial	2 % of initial	number of animals surviving to old ages (C. elegans nematodes): significantly increased; wheat seed germination rate [2, 9]: 0%; wheat seed germination rate [2, 4]: 0 percentage of total seeds; wheat seed germination rate [2, 10]: 11%; wheat seed germination rate [2, 5]: 0 percentage of total seeds; wheat seed germination rate [2, 11]: 18%; wheat seed germination rate [2, 6]: 48 percentage of total seeds; wheat seed germination rate [2, 12]: 68%; wheat seed germination rate [2, 7]: 70 percentage of total seeds; wheat seed germination rate [2, 13]: 92%; wheat seed germination rate [2, 8]: 85 percentage of total seeds
–	–	–	–	γ-cyclodextrin	–	–	–	100 % of initial	13 % of initial	2 % of initial	number of animals surviving to old ages (C. elegans nematodes): significantly increased
